Earlier results in patent publication US20170079478A1, “NITROUS OXIDE MIXTURES AND METHODS OF USE” (KORVATA INC., priority 2014, published 2017).
Read-outs that look alike come from different tables or passages of the source.

What was measured:
[1] = compared with nitrogen standardized to 1.0

[Xe] [Xe, xenon]
RNP (Relative Narcotic Potency) [1]: 25.6

[N-]=[N+]=O [Example N2O, nitrous oxide]
RNP (Relative Narcotic Potency) [1]: 39

[He] [He, helium]
RNP (Relative Narcotic Potency) [1]: 0.045

[Kr] [Kr, krypton]
RNP (Relative Narcotic Potency) [1]: 7.1

[Ne] [Ne, neon]
RNP (Relative Narcotic Potency) [1]: 0.3

[Ar] [Ar, argon]
lipid solubility (0° C. and 15 psi): 0.30 mg/mL
lipid solubility (20° C. and 15 psi): 0.25 mg/mL
RNP (Relative Narcotic Potency) [1]: 2.3
